These results are taken from patent publication US8501734B2, “Medical intervention in haematological cancers” (Oncotyrol-Center for Personalized Cancer Medicine GmbH …, priority 2008, dated 2013).

One data set relates to OPM-2 cells xenograft. It is filed as in vivo, NIH III-nude mice. As for the experimental part:
Average tumor diameter and mouse body weight was measured every 3rd day.
Treatment was started when tumors reached an average diameter of 0.8 cm and mice were sacrificed when the tumor reached an average diameter of 1.5 cm. A maximum volume of 150 μl of Imiquimod®, in a concentration of 2.5 mg/ml in H2O, was injected subcutaneously into the left flank of the mice. The same amount of H2O was injected in the same way into control mice. Tumor volume was calculated with the formula 4π/3×(width/2)2×(length/2).

Data set [1] has as its system human epidermoid carcinoma cell line A431. Put plainly: Apoptosis induction in A431 cells. It is filed as cell-based. As for the experimental part:
(§1) After treatment adherent cells were trypsinized (as described before), and resuspended in corresponding full medium. Suspension cells or trypsinized adherent cells, supernatant and washing solution (1×PBS from washing before trypsinization) were pooled and then spun down (300 g for 3 min) washed in 2 ml and resuspended in 1000 of annexin V binding buffer and mixed with 2 μg/ml annexin V-Allophycocyanin (APC) (BD-Pharmingen, San Diego, Calif., USA) and 50 ng/ml of propidium iodide (PI; Sigma Aldrich). At least 10.000 cells were measured per sample using a Becton Dickinson FACSCalibur flow Cytometer (San Jose, Calif., USA). Percentage of Annexin V negative and PI negative cells were depicted in the figures. […] Briefly, BMMCs were stained with a mixture of annexin V/FITC (Alexis Coorp., Laeufelfingen, Switzerland), propidium iodide (Sigma), anti-CD38-PE and anti-CD45-PC5 for 15 min at room temperature and immediately analyzed by flow cytometry. The percentages of viable cells (i.e. cells negative for annexin V/FITC and PI) within the MM (CD38^posCD45^low/absent) and non-MM fraction (CD38^neg/CD45^pos) were determined by flow cytometry.
(§2) Adherent cells were grown in 24-well plates to confluence and treated with 40 μg/ml Imiquimod® for 24 h. Cells were then trypsinized, suspended in full medium, stained for AnnexinV/PI and apoptosis was measured as described before. […]

The subject of data set [2] is primary MM cells (CD38highCD45low). Put plainly: Annexin V/PI apoptosis assay, primary MM cells from patient bone marrow aspirates. In kind it is cell-based, human. As to conditions: 40 μg/ml, 8 h or 24 h, time dependent. As for the experimental part:
For collection of primary multiple myeloma cells, bone marrow aspirates from iliac crests were collected during routine examinations after obtaining informed patient consent. Bone marrow mononuclear cells (BMMCs) were separated by density centrifugation. Fresh blood samples were diluted 1:1 with RPMI 1640 medium and layered over Biocoll separating solution (1.077 g/ml, Biochrom AG, Berlin; blood/RPMI1640/Biocoll; 1:1:1, v/v/v). Centrifugation was carried out for 20 min at 400 g. […] The percentage of multiple myeloma cells within the BMMCs was determined by flow cytometry. Briefly, 2×10^5 cells were stained for 15 min with fluorochrome-labelled antibodies to CD38 (phycoerythrin, PE) and CD45 (phycoerythrin-cyanin 5, PC5) (both from Beckman Coulter Inc., Fullerton, Calif., USA), washed with PBS and were immediately analyzed using the FC500 flow cytometer and the RXP1.0 software (Beckman Coulter). MM cells were detected by their high expression of CD38 and weak to absent expression of CD45.
After treatment adherent cells were trypsinized (as described before), and resuspended in corresponding full medium. […] At least 10.000 cells were measured per sample using a Becton Dickinson FACSCalibur flow Cytometer (San Jose, Calif., USA). […]

For data set [3], the system named is squamous cell carcinoma cells. The conditions noted are these: 50 μg/ml, 24 h; cited from earlier work.
In data set [4] the test system is MDA468, CHO, ONK2, MCF7, HeLa, Raji, Daudi, Ramos, C7H2 and Jurkat; adherent cell lines. Put plainly: Annexin V/PI apoptosis assay, non-MM and adherent cell lines. In kind it is cell-based. On the procedure: as §1, §2
The subject of the next data set is OPM2 cells. Put plainly: Growth of OPM2 cells under multiple low doses (cell counting). It is filed as cell-based. On the procedure: 2×10^5 OPM2 cells in 1 ml of full medium were cultured in 24-well plates in duplicates for 8 days. For the first three days the appropriate amount of Imiquimod® (1, 2, 5, 5, or 10 μg/ml) was added daily. For determination of absolute cell numbers 100 μl of cell suspension were taken on days 1-5 and day 8 and cell number was determined using the CASY Cell Counter Model DT (Schärfe System GmbH, Reutlingen, Germany). On the fourth day cells were spun down (200 g, 2 min) and 600 μl of the remaining 700 μl of supernatant (100 μl were left to keep cell pellet undisturbed) were removed and 600 μl of fresh full medium was added to the cell culture.

The next data set relates to NCI cells. Put plainly: Annexin V/PI apoptosis assay, NCI cells. The conditions noted are these: 40 μg/ml, 24 h. It is filed as cell-based. As for the experimental part: as §1, §2
In the next data set the test system is U266 cells. Put plainly: Annexin V/PI apoptosis assay (FACS), U266 cells. For Apoptosis induction: key: 0 for no; + for low; ++: + indicates the range of apoptosis induction; +++: + indicates the range of apoptosis induction; ++++ for very strong apoptosis induction. It is filed as cell-based. Also noted: apoptosis induction: unit not given here. The conditions noted are these: for apoptosis induction: Imi 20 μg/ml alone.
Data set [5] concerns Raji, Daudi, Ramos, Jurkat, C7H2 cell lines. Put plainly: Annexin V/PI apoptosis assay, non-multiple myeloma suspension cell lines. It is filed as cell-based. The conditions noted are these: 24 h. As for the experimental part: After treatment adherent cells were trypsinized (as described before), and resuspended in corresponding full medium. Suspension cells or trypsinized adherent cells, supernatant and washing solution (1×PBS from washing before trypsinization) were pooled and then spun down (300 g for 3 min) washed in 2 ml and resuspended in 1000 of annexin V binding buffer and mixed with 2 μg/ml annexin V-Allophycocyanin (APC) (BD-Pharmingen, San Diego, Calif., USA) and 50 ng/ml of propidium iodide (PI; Sigma Aldrich). At least 10.000 cells were measured per sample using a Becton Dickinson FACSCalibur flow Cytometer (San Jose, Calif., USA). Percentage of Annexin V negative and PI negative cells were depicted in the figures. For the analysis of the pro-apoptotic activity of Imiquimod® in primary MM cells and non-malignant BMMCs, 5×10^5 cells BMMCs cells were treated with or without 40 μg/ml Imiquimod® for the indicated time periods. Cells were then harvested and washed twice with PBS. Detection of apoptotic cells was performed using the annexin V/PI assay according to manufacturers' instruction. Briefly, BMMCs were stained with a mixture of annexin V/FITC (Alexis Coorp., Laeufelfingen, Switzerland), propidium iodide (Sigma), anti-CD38-PE and anti-CD45-PC5 for 15 min at room temperature and immediately analyzed by flow cytometry. The percentages of viable cells (i.e. cells negative for annexin V/FITC and PI) within the MM (CD38^posCD45^low/absent) and non-MM fraction (CD38^neg/CD45^pos) were determined by flow cytometry.
Adherent cells were grown in 24-well plates to confluence and treated with 40 μg/ml Imiquimod® for 24 h. Cells were then trypsinized, suspended in full medium, stained for AnnexinV/PI and apoptosis was measured as described before. Suspension cells (250.000) were treated with 40 μg/ml Imiquimod® for 24 h, stained for Annexin/PI and apoptosis was measured as described above (Annexin V/Propidium Iodide apoptosis Assay).

For the compound `CC(C)Cn1cnc2c(N)nc3ccccc3c21` [Imiquimod, 1-(2-methylpropyl)-1H-imidazo[4,5-c]quinolin-4-amine], the “changes in tumor volume” value in the data set on OPM-2 cells xenograft (10 mg/kg s.c. twice daily) was “ranging from tumor regression and stagnation, via slower growth to increase in tumor volume comparable to controls”. Also, the “histological analysis of tumors (haematoxylin and eosin)” value with OPM-2 cells xenograft (10 mg/kg s.c. twice daily) is “regions of massive tissue destruction”. Moreover, the tumor regression with OPM-2 cells xenograft (10 mg/kg s.c. twice daily) is reported as 5 cases. Also, the “weight development, treated versus control mice” value with OPM-2 cells xenograft (10 mg/kg s.c. twice daily) was “no difference”. Besides, in the data set with OPM-2 cells xenograft (10 mg/kg s.c. twice daily vs H2O, p=0.027, t-test), the “survival of treated mice” value was “significantly increased”. In the data set on OPM-2 cells xenograft (10 mg/kg s.c. twice daily, besides scars at the injection site), the side effects entry is listed as “no obvious side effects could be observed”. In addition, the apoptosis induction entry is “no significant apoptosis induction” in data set [1]; “significantly induced apoptosis” in data set [2]; “+” in the data set on U266 cells (24 h); “+ and ++” with U266 cells (48 h, listed as Imi); “apoptosis to some minor degree” in data set [5] (Raji, Daudi, Ramos, Jurkat, C7H2, 20 μg/ml). Moreover, the apoptotic cells in [3] is 17.3%; in the data set on NCI cells it was 90%. Besides, in data set [4] (MDA468, CHO, ONK2, MCF7, HeLa, Raji, Daudi, Ramos, C7H2 and Jurkat), the “sensitivity to Imiquimod” value is “no sensitivity”. Besides, the “sensitivity (apoptosis)” value in data set [4] (set of adherent cell lines, 40 μg/ml, 24 h) is “no significant or only minimal sensitivity”; in [5] (Raji and Jurkat, 40 μg/ml) it was “if at all only low sensitivity”. In addition, the results for the cell growth inhibition entry in the data set with OPM2 cells (3-times given dose of 10 μg/ml) and with OPM2 cells (triple treatment with 5 μg/ml) were “sufficient to irreversibly inhibit cell growth” and “sufficient to significantly block the growth potential”, respectively. In the data set with U266 cells (40 μg/ml, 24 h), the “cells dying upon treatment” value was “about 30%”.
